According to PMC4976335, “Miniaturizing VEGF: Peptides mimicking the discontinuous VEGF receptor-binding site modulate the angiogenic response” (Scientific Reports, 2016):
Bridges are numbered along the chain shown (N, C = ends). [ ]: non-standard residue; d: D form. isopeptide = not defined here; Ahp = NCCCCCCC(=O)O

Columns and labels:
[1] = test system: human umbilical vein endothelial cells (HUVECs); test: HUVEC proliferation assay (cell counting), with or without SU5614; assay type: cell-based; conditions: SU5614 (10 μM) alone, 0 ng/mL peptide, 72 h
Procedure: As the activation of ERK1/2 pathway in ECs leads to DNA synthesis and cell proliferation, we evaluated whether EP3, EP5 and EP6 peptides were able to stimulate cell growth. A proliferation assay was performed on human umbilical vein endothelial cells (HUVECs). Cells in starvation medium were incubated with increasing concentrations (0.5, 5 and 50 ng/mL) of the selected peptides and VEGF, and cell number was counted after 72 h. […] Cell survival was evaluated by MTT assay in PAEC-VEGFR2 following stimulation with EP6 and equimolar concentration with control peptides for 48 h.
The same proliferation assay was repeated in HUVEC in presence of the tyrosine kinase inhibitor SU5614 (Table 1). In the presence of the inhibitor, the proliferative effect of the EP peptides was suppressed, confirming that EP-induced proliferation was correlated to VEGFR2 phosphorylation.
Human Umbilical Vein Endothelial Cells (HUVECs) were purchased from Lonza (Basel, Switzerland). All experiments were performed on low passage cell cultures. […]
HUVECs were plated at density of 1500 cells/well in 96-well gelatin-coated microplates. […] Cell proliferation was evaluated as number of cells counted per well[35].

VEGFR2 [2] = test: Antagonism of VEGF-stimulated VEGFR2 phosphorylation, western blot in PAEC overexpressing VEGFR2; assay type: cell-based
VEGFR2 [3] = test: VEGFR2 auto-phosphorylation (agonism), anti-phospho-Tyr western blot in PAEC overexpressing VEGFR2; assay type: cell-based
C57 black mice = test: In vivo Matrigel plug angiogenesis assay; conditions: 500 ng/plug, subcutaneous Matrigel, 10 days, implants inspected and haemoglobin content measured (Fig. 7B)
Procedure: Figure 7 In vitro and in vivo angiogenic properties of EP peptides. (A) HUVECs were plated onto a layer of basement membrane matrix (Matrigel) and incubated at 37 °C for 18 h in the presence of EP3, EP5, EP6 and VEGF (50 ng/mL). After treatment, photomicrographs of tubular structures (Top) were quantified as angiogenic index, calculated as the number of complete circles counted/field by microscope image analysis (Bottom). *p < 0.05 vs basal control. (B) In vivo Matrigel angiogenesis assay was performed by injecting Matrigel solution containing 500 ng of the selected EP peptides into the dorsal midline region of C57 black mice. […] After 10 days Matrigel implants were recovered (Top) and analyzed for their haemoglobin content (bottom). *p < 0.05 and **p < 0.01 vs Matrigel alone.
The pro-angiogenic activity of EP peptides was evaluated by an in vivo test, using Matrigel plugs loaded with EP3, EP5 or EP6 peptides or VEGF (500 ng/plug). […] The hemoglobin content of explanted plugs was measured by a spectrophotometric assay (Fig. 7B, Bottom).
In vivo Matrigel angiogenesis assay was performed as previously described. […] Plugs were resuspended in 1 ml of Drabkin’s reagent for 18 h on ice and haemoglobin concentration was determined by absorbance at 540 nm and compared with a standard curve (Sigma-Aldrich, Milan, Italy).

[4] = biological target: T1, second domain of VEGFR1 (VEGFR1D2) (UniProt P17948 129-229); test: NMR titration; 2D [15N,1H] HSQC chemical shift perturbation; 110 μM 15N-labeled VEGFR1D2, EP6 added from 27.5 to 550 μM; 20 mM Tris-HCl pH 7.5, 0.02% sodium azide, 10% 2H2O; 298 K; single-site fit, overall apparent KD as mean over the residues of the binding site; conditions: both partners purified
T1 construct: VEGFR1 (vascular endothelial growth factor receptor 1), second domain; The shifts were mapped onto the NMR structure PDB 1QSV of VEGFR1D2; also called domain 2 of VEGFR1; source: recombinant; 15N-labeled for the HSQC titration
T1 sequence (P17948 129-229): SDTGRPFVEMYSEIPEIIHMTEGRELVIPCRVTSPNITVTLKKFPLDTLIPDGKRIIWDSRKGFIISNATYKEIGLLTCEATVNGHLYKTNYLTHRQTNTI

With `Cc1cc(C)c(/C=C2\C(=O)Nc3ccc(Cl)cc32)[nH]1` [SU5614] as the molecule, how does the “HUVEC proliferation, cells counted/well” value [1] read?
The value was 63.5 ± 8.7 cells counted/well.

What about the “antagonism of VEGF-stimulated VEGFR2 phosphorylation (in words)” value (VEGFR2 [2]; EP/control peptides 50 ng/mL 15 min, then VEGF 50 ng/mL 15 min, SU5614 10 μM (Fig. 2B)) of the same molecule?
Its value is “inhibited”.

What about the “VEGFR2 phosphorylation after VEGF, ∆ of fold increase respect to VEGF induced response” value (VEGFR2 [2]; peptide 50 ng/mL pretreatment 15 min, then VEGF 50 ng/mL for additional 15 min, serum deprivation, SU5614 10 μM, western blot quantification, representative of three experiments) of the same molecule?
The value was 0.15 ± 0.05 ∆ of fold increase respect to VEGF induced response.

What does the source list for “Vascular Endothelial Growth Factor [VEGF]”?
VEGFR2 phosphorylation, fold increase respect to Ctr (VEGFR2 [3]; 50 ng/mL each, 15 min at 37 °C, PAEC overexpressing VEGFR2, western blot quantification, anti-phospho-Tyr, gels representative of three experiments): 6.5 ± 1.3 fold increase respect to Ctr; VEGFR2 phosphorylation induced (in words) (VEGFR2 [3]; 50 ng/mL, 15 min, PAEC overexpressing VEGFR2 (Fig. 2A)): induced VEGFR2 phosphorylation; blood vessel formation / angiogenesis in Matrigel plugs (in words) (C57 black mice): blood vessel formation was observed

B1: EP6 peptide (mini-VEGF; AcHx ligated to Hn6) (peptide)
chain: Ac-EKFMDVYQLKYKGIC[Ahp]QIMRIKPHQGQHIGETS-NH2
modifications: bridge 1-15 via isopeptide; reading uncertain; also: two peptides Hx (1-14, C-terminal amide after Ile14) and Hn (15-33) joined by isopeptide bond
Which Kd [4] does the source give for B1 here?
Its Kd is 139 µM.
